Source: patent publication US20250026724A1, “(1,4,5-TRISUBSTITUTED 1H-PYRAZOL-3-YL)OXY-2-ALKYLTHIOALKYL ACIDS AND -ALKYL ACID DERIVATIVES, SALTS THEREOF AND USE THEREOF AS ACTIVE HERBICIDAL INGREDIENTS” (BAYER AKTIENGESELLSCHAFT, priority 2021, published 2025)

What was measured:
Assay in all cases: Post-emergence herbicidal action, greenhouse pot trial
Assay type in all cases: in vivo
[1] = tested on: Digitaria sanguinalis (DIGSA); details: visual rating after about 3 weeks; for pest or weed control at 320 g/ha: Digitaria sanguinalis, 504 h, read-out: Post-emergence effect at 320 g/ha against DIGSA in %
Procedure: (§1) Seeds of monocotyledonous and dicotyledonous weeds and crop plants are placed in sandy loam in plastic or organic planting pots, covered with soil and cultivated in a greenhouse under controlled growth conditions. 2 to 3 weeks after sowing, the trial plants are treated at the one-leaf stage. The compounds of the invention, formulated in the form of wettable powders (WP) or as emulsion concentrates (EC), are then sprayed onto the green parts of the plants as aqueous suspension or emulsion with addition of 0.5% additive at a water application rate equivalent to 600 l/ha. After about 3 weeks of keeping the trial plants in the greenhouse under optimum growth conditions, the effect of the preparations is rated visually in comparison to untreated controls. For example, 100% activity=the plants have died, 0% activity=like control plants.
(§2) Tables B1 to B14 below show the effects of selected compounds of the general formula (I) according to Table 1 on various harmful plants and at an application rate corresponding to 320 g/ha or lower, which were obtained by the trial procedure specified above. The appendices “a”, “b” and “c” give differentiation by dosage used with otherwise the same harmful plants tested.
(§3) As shown by results from Tables B1 to B19, inventive compounds of the general formula (I) in the case of post-emergence treatment have good herbicidal efficacy against harmful plants, for example Abutilon theophrasti (ABUTH), Alopecurus myosuroides (ALOMY), Amaranthus retroflexus (AMARE), Avena fatua (AVEFA), Digitaria sanguinalis (DIGSA), Echinochloa crus-galli (ECHCG), Bassia scoparia (KCHSC), Lolium rigidum (LOLRI), Matricaria inodora (MATIN), Pharbitis purpurea (PHBPU), Polygonum convolvulus (POLCO), Setaria viridis (SETVI), Veronica persica (VERPE) and Viola tricolor (VIOTR) at an application rate of 320 g of active substance or less per hectare, and good crop plant compatibility in the case of organisms such as Oryza sativa (ORYSA), Zea mays (ZEAMX), Brassica napus (BRSNW), Glycine max (GLXMA) and Triticum aestivum (TRZAS) at an application rate of 320 g or less per hectare.

[2] = tested on: Pharbitis purpurea (PHBPU); details: visual rating after about 3 weeks; for pest or weed control at 320 g/ha / pest or weed control at 80 g/ha: Ipomoea purpurea, 504 h; for pest or weed control at 320 g/ha: read-out: Post-emergence effect at 320 g/ha against PHBPU in %; for pest or weed control at 80 g/ha: read-out: Post-emergence effect at 80 g/ha against PHBPU in %
Procedure: as §1, §2, §3

[3] = tested on: Abutilon theophrasti (ABUTH); details: visual rating after about 3 weeks; for pest or weed control at 320 g/ha: read-out: Post-emergence effect at 320 g/ha against ABUTH in %
Procedure: as §1, §2, §3

[4] = tested on: Matricaria inodora (MATIN); details: 320 g/ha, visual rating after about 3 weeks; for pest or weed control at 320 g/ha: Tripleurospermum inodorum, 504 h, read-out: Post-emergence effect at 320 g/ha against MATIN in %
Procedure: as §1, §2, §3

[5] = tested on: Polygonum convolvulus (POLCO); details: visual rating after about 3 weeks; for pest or weed control at 80 g/ha / pest or weed control at 320 g/ha: Fallopia convolvulus, 504 h; for pest or weed control at 80 g/ha: read-out: Post-emergence effect at 80 g/ha against POLCO in %; for pest or weed control at 320 g/ha: read-out: Post-emergence effect at 320 g/ha against POLCO in %
Procedure: as §1, §2, §3

Viola tricolor (VIOTR) = details: for pest or weed control at 320 g/ha / pest or weed control at 80 g/ha: Viola tricolor, 504 h, read-out: Post-emergence effect against VIOTR
Procedure: as §1, §2, §3

Avena fatua (AVEFA) = details: 320 g/ha, visual rating after about 3 weeks; for pest or weed control at 320 g/ha: Avena fatua, 504 h, read-out: Post-emergence effect at 320 g/ha against AVEFA in %
Procedure: as §1, §2, §3

[6] = tested on: Echinochloa crus-galli (ECHCG); details: visual rating after about 3 weeks; for pest or weed control at 80 g/ha / pest or weed control at 320 g/ha: Echinochloa crus-galli, 504 h; for pest or weed control at 80 g/ha: read-out: Post-emergence effect at 80 g/ha against ECHCG in %; for pest or weed control at 320 g/ha: read-out: Post-emergence effect at 320 g/ha against ECHCG in %
Procedure: as §1, §2, §3

[7] = tested on: Alopecurus myosuroides (ALOMY); details: Alopecurus myosuroides, 504 h, 320 g/ha, visual rating after about 3 weeks, read-out: Post-emergence effect at 320 g/ha against ALOMY in %
Procedure: as §1, §2, §3

Setaria viridis (SETVI) = details: visual rating after about 3 weeks; for pest or weed control at 320 g/ha: Setaria viridis, 504 h, read-out: Post-emergence effect at 320 g/ha against SETVI in %
Procedure: as §1, §2, §3

[8] = tested on: Amaranthus retroflexus (AMARE); details: visual rating after about 3 weeks; for pest or weed control at 80 g/ha / pest or weed control at 320 g/ha: Amaranthus retroflexus, 504 h; for pest or weed control at 80 g/ha: read-out: Post-emergence effect at 80 g/ha against AMARE in %; for pest or weed control at 320 g/ha: read-out: Post-emergence effect at 320 g/ha against AMARE in %
Procedure: as §1, §2, §3

Bassia scoparia (KCHSC) = details: 320 g/ha; for pest or weed control at 320 g/ha: Bassia scoparia, 504 h, read-out: Post-emergence effect against KCHSC
Procedure: as §1, §2, §3

Lolium rigidum (LOLRI) = details: Lolium rigidum, 504 h, 320 g/ha, visual rating after about 3 weeks, read-out: Post-emergence effect at 320 g/ha against LOLRI in %
Procedure: as §1, §2, §3

| Structure (SMILES) | pest or weed control at 320 g/ha [7] | pest or weed control at 320 g/ha [1] | pest or weed control at 320 g/ha [2] | pest or weed control at 320 g/ha [4] | pest or weed control at 320 g/ha (Viola tricolor (VIOTR); 320 g/ha) | pest or weed control at 320 g/ha [6] | pest or weed control at 320 g/ha (Lolium rigidum (LOLRI)) | pest or weed control at 320 g/ha (Setaria viridis (SETVI)) | pest or weed control at 320 g/ha ([3]; Abutilon theophrasti, 504 h) | pest or weed control at 320 g/ha [5] | pest or weed control at 80 g/ha (Viola tricolor (VIOTR); 80 g/ha) | other results |
| --- | --- | --- | --- | --- | --- | --- | --- | --- | --- | --- | --- | --- |
| CSC(Oc1nn(-c2ncccc2F)c(-c2ccc(F)nc2)c1Br)C(=O)O (single isomer, unassigned) [Example I-25] | 90% | – | – | – | – | – | – | – | – | – | – | Post-emergence effect at 80 g/ha against DIGSA in % [1]: 80%; Post-emergence effect at 320 g/ha against DIGSA in % [1]: 90%; Post-emergence effect at 80 g/ha against PHBPU in % ([2]; 80 g/ha): 90%; Post-emergence effect at 320 g/ha against PHBPU in % [2]: 90%; Post-emergence effect at 320 g/ha against ABUTH in % [3]: 90%; Post-emergence effect at 320 g/ha against MATIN in % [4]: 80%; Post-emergence effect at 320 g/ha against POLCO in % [5]: 80%; pest or weed control at 80 g/ha ([5]; 80 g/ha): 80%; Post-emergence effect against VIOTR (Viola tricolor (VIOTR); 320 g/ha): 90%; Post-emergence effect at 320 g/ha against AVEFA in % (Avena fatua (AVEFA)): 90%; Post-emergence effect at 320 g/ha against ECHCG in % [6]: 90%; pest or weed control at 80 g/ha [6]: 80%; Post-emergence effect at 320 g/ha against SETVI in % (Setaria viridis (SETVI)): 90%; Post-emergence effect at 320 g/ha against AMARE in % [8]: 90%; pest or weed control at 80 g/ha ([8]; 80 g/ha): 90%; Post-emergence effect against KCHSC (Bassia scoparia (KCHSC)): 90% |
| COC(=O)C(Oc1nn(-c2ncccc2F)c(-c2ccc(F)nc2)c1Br)SC (single isomer, unassigned) [Example I-27] | – | – | – | – | – | – | – | – | – | – | – | Post-emergence effect at 320 g/ha against DIGSA in % [1]: 90%; Post-emergence effect at 320 g/ha against PHBPU in % [2]: 100%; Post-emergence effect at 80 g/ha against ABUTH in % ([3]; 80 g/ha): 80%; Post-emergence effect at 320 g/ha against ABUTH in % [3]: 90%; Post-emergence effect at 320 g/ha against MATIN in % [4]: 80%; Post-emergence effect at 20 g/ha against POLCO in % ([5]; 20 g/ha): 80%; Post-emergence effect at 80 g/ha against POLCO in % ([5]; 80 g/ha): 80%; Post-emergence effect at 320 g/ha against POLCO in % [5]: 90%; Post-emergence effect against VIOTR (Viola tricolor (VIOTR); 80 g/ha): 80%; Post-emergence effect against VIOTR (Viola tricolor (VIOTR); 320 g/ha): 90%; Post-emergence effect at 320 g/ha against AVEFA in % (Avena fatua (AVEFA)): 90%; Post-emergence effect at 320 g/ha against ECHCG in % [6]: 90%; Post-emergence effect at 320 g/ha against SETVI in % (Setaria viridis (SETVI)): 90%; Post-emergence effect at 80 g/ha against AMARE in % ([8]; 80 g/ha): 80%; Post-emergence effect at 320 g/ha against AMARE in % [8]: 80%; pest or weed control at 320 g/ha (Bassia scoparia (KCHSC)): 80% |
| CCOC(=O)C(Oc1nn(-c2ccccc2F)c(-c2ccc(F)nc2)c1Br)SC (single isomer, unassigned) [Example I-30] | 90% | 90% | 80% | 80% | 90% | 80% | 80% | 80% | – | – | – | Post-emergence effect at 80 g/ha against DIGSA in % [1]: 80%; pest or weed control at 80 g/ha [6]: 80% |
| CCOC(=O)C(Oc1nn(-c2ccccc2)c(-c2ccc(F)nc2)c1Br)SC (centres unmarked) [Example I-04] | – | 80% | – | 90% | 90% | 80% | 90% | 90% | 80% | 90% | 80% | pest or weed control at 80 g/ha ([5]; 80 g/ha): 80% |
| CCOC(=O)C(Oc1nn(-c2cnccn2)c(-c2ccc(F)nc2)c1Cl)SC (centres unmarked) [Example I-16] | 80% | – | 80% | – | – | 80% | – | – | – | 80% | – | – |
| CCOC(=O)C(Oc1nn(-c2ncccc2F)c(-c2ccc(F)nc2)c1Cl)SC (centres unmarked) [Example I-19] | – | 80% | 90% | 90% | 100% | 100% | 100% | 90% | 90% | 90% | 90% | pest or weed control at 80 g/ha ([2]; 80 g/ha): 80%; pest or weed control at 320 g/ha (Avena fatua (AVEFA)): 100%; pest or weed control at 80 g/ha ([8]; 80 g/ha): 80%; pest or weed control at 320 g/ha [8]: 90% |
| CSC(Oc1nn(-c2ncccc2F)c(-c2ccc(F)nc2)c1Cl)C(=O)O (centres unmarked) [Example I-31] | 80% | 80% | 80% | 80% | – | 90% | – | 80% | – | 80% | – | pest or weed control at 320 g/ha (Avena fatua (AVEFA)): 80%; pest or weed control at 80 g/ha [6]: 80%; pest or weed control at 320 g/ha [8]: 80% |
| CSC(Oc1nn(-c2cnccn2)c(-c2ccc(F)nc2)c1Br)C(=O)O (centres unmarked) [Example I-36] | 90% | – | 90% | – | 80% | – | – | – | 80% | 90% | – | pest or weed control at 320 g/ha (Bassia scoparia (KCHSC)): 90% |
| CSC(Oc1nn(-c2cnccn2)c(-c2ccc(F)nc2)c1Cl)C(=O)O (centres unmarked) [Example I-37] | 90% | – | 90% | – | 80% | – | – | – | 80% | 90% | – | pest or weed control at 320 g/ha (Bassia scoparia (KCHSC)): 90% |
| COC(=O)C(Oc1nn(-c2ccccc2F)c(-c2ccc(F)nc2)c1I)SC (centres unmarked) [Example I-52] | – | 80% | – | 80% | 90% | 90% | 100% | 90% | 80% | 90% | 80% | Post-emergence effect at 80 g/ha against SETVI in % (Setaria viridis (SETVI); 80 g/ha): 80%; pest or weed control at 320 g/ha [8]: 90% |
| COC(=O)C(Oc1nn(-c2ncccc2F)c(-c2ccc(F)nc2)c1C1CC1)SC (centres unmarked) [Example I-59] | – | – | 90% | – | 80% | 90% | 90% | – | 90% | – | 80% | pest or weed control at 80 g/ha ([2]; 80 g/ha): 90%; pest or weed control at 80 g/ha ([3]; Abutilon theophrasti, 504 h, 80 g/ha, read-out: Post-emergence effect at 80 g/ha against ABUTH in %): 80%; pest or weed control at 320 g/ha (Avena fatua (AVEFA)): 90% |
